Test results: patent publication US20230135093A1, “TRIAZOLYL DERIVATIVES AS GABA A ALPHA5 PAM” (Hoffmann-La Roche Inc., priority 2020, published 2023)

Tests used:
h-GABA-A α5β3γ2 [1] = molecular target: T1, h-GABA-A α5β3γ2 (Homo sapiens, UniProt P18507+P31644); assay: [3H]flumazenil competition binding assay on membranes of HEK293 cells expressing GABAA receptors; settings: Table 1; displacement of [3H]-Flumazenil (0.5 nM), HEK293 cells expressing human receptors, means of two determinations
T1 construct: expressed in transfected cells; host or cells: Xenopus laevis oocytes, micro-injected with subunit RNA
Outline: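 Competition for [3H]flumazenil (0.5 nM for α5 subunits) was measured at equilibrium (1 h, 4 °C, Krebs-tris buffer pH 7.5) on transiently transfected HEK293 membranes bearing human α5β3γ2 receptors, with 10^−5 M diazepam defining nonspecific binding. Ki values were derived from filtration and scintillation counting, averaged over duplicates.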

h-GABA-A α5β3γ2 [2] = molecular target: T1, h-GABA-A α5β3γ2; assay: Two-electrode voltage clamp electrophysiology in Xenopus oocytes expressing GABAA receptors (modulation of GABA EC20 current); type: cell-based; settings: Table 1; for Efficacy (GABA) %: % modulation of GABA EC20 = 100*(Fold increase-1); for Fold increase h-GABA-A α5β3γ2 oocyte: Xenopus oocytes, GABA EC20, test compound at approximatively 30 fold its Ki
Outline: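 GABA EC20 currents in human α5β3γ2-expressing Xenopus oocytes, voltage-clamped at −80 mV (room temperature, pH 7.4), measured with and without compound at ~30× Ki applied 0.5 min into the second GABA pulse. % modulation = 100×(fold increase−1), taken from the extremum of the current ratio trace; at least 3 oocytes per concentration.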

| SMILES | Ki (h-GABA-A α5β3γ2 [1]) [nM] | Efficacy (GABA) % (h-GABA-A α5β3γ2 [2]) [%] | Fold increase h-GABA-A α5β3γ2 oocyte (h-GABA-A α5β3γ2 [2]) |
| --- | --- | --- | --- |
| CCOc1ccc(-c2cnn(Cc3c(-c4ccc(Cl)cc4F)nnn3C)c(=O)c2)cn1 [Example 103, 2-((5-(4-chloro-2-fluoro-phenyl)-3-methyl-triazol-4-yl)methyl)-5-(6-ethoxy-3-pyridyl)pyridazin-3-one] | 10.4 | 106 | 2.06 |
| COc1ncc(-c2cnn(Cc3c(-c4ccc(Cl)cc4F)nnn3C)c(=O)c2)cc1C [Example 104, 2-((5-(4-chloro-2-fluoro-phenyl)-3-methyl-triazol-4-yl)methyl)-5-(6-methoxy-5-methyl-3-pyridyl)pyridazin-3-one] | 11.8 | 158 | 2.58 |
| CCn1nnc(-c2ccc(Cl)cc2F)c1Cn1ncc(-c2cnn(C3CC3)c2)cc1=O [Example 105, 2-((4-(4-chloro-2-fluorophenyl)-1-ethyl-1H-1,2,3-triazol-5-yl)methyl)-5-(1-cyclopropyl-1H-pyrazol-4-yl)pyridazin-3(2H)-one] | 17.2 | 111 | 2.11 |
| Cn1nnc(-c2ccc(Cl)cc2F)c1Cn1ncc(-c2cnn(CC(F)F)c2)cc1=O [Example 106, 2-((5-(4-chloro-2-fluoro-phenyl)-3-methyl-triazol-4-yl)methyl)-5-(1-(2,2-difluoro-ethyl)pyrazol-4-yl)pyridazin-3-one] | 11.4 | 72 | 1.72 |
| Cn1nnc(-c2ccc(Cl)cc2F)c1Cn1ncc(-c2cccc(C#N)n2)cc1=O [Example 107, 6-(1-((5-(4-chloro-2-fluoro-phenyl)-3-methyl-triazol-4-yl)methyl)-6-oxo-pyridazin-4-yl)pyridine-2-carbonitrile] | 9 | 234 | 3.34 |
| COc1cc(-c2cnn(Cc3c(-c4ccc(Cl)cc4F)nnn3C)c(=O)c2)cnc1Cl [Example 108, 2-((5-(4-chloro-2-fluoro-phenyl)-3-methyl-triazol-4-yl)methyl)-5-(6-chloro-5-metlioxy-3-pyridyl)pyridazin-3-one] | 16.8 | 46 | 1.46 |
| C[C@@H]1CCCN1c1cnn(Cc2c(-c3ccc(Cl)nc3)nnn2C)c(=O)c1 [Example 109, 2-[[5-(6-chloro-3-pyridyl)-3-methyl-triazol-4-yl]methyl]-5-[(2R)-2-methylpyrrolidin-1-yl]pyridazin-3-one] | 1.1 | 75 | 1.75 |
| CCn1nnc(-c2ccc(Cl)cc2F)c1Cn1ncc(-c2cnc(OC)c(Cl)c2)cc1=O [Example 110, 2-((4-(4-chloro-2-fluorophenyl)-1-ethyl-1H-1,2,3-triazol-5-yl)methyl)-5-(5-chloro-6-methoxypyridin-3-yl)pyridazin-3(2H)-one] | 8.8 | 139 | 2.39 |
| CCn1nnc(-c2ccc(Cl)cc2F)c1Cn1ncc(-c2cccc(C#N)n2)cc1=O [Example 111, 6-(1-((4-(4-chloro-2-fluorophenyl)-1-ethyl-1H-1,2,3-triazol-5-yl)methyl)-6-oxo-1,6-dihydropyridazin-4-yl)picolinonitrile] | 23.8 | 290 | 3.9 |
| C[C@@H]1CN(c2cnn(Cc3c(-c4ccc(Cl)nc4)nnn3C)c(=O)c2)C[C@H](C)O1 [Example 112, 2-[[5-(6-chloro-3-pyridyl)-3-methyl-triazol-4-yl]methyl]-5-[(2S,6R)-2,6-dimethylmorpholin-4-yl]pyridazin-3-one] | 12.8 | 228 | 3.28 |
